Data on 20 compounds can be found in patent US9751861B2, “N1-(3,3,3-trifluoro-2-hydroxo-2-methylpropionyl)-piperidine derivatives as inhibitors of pyruvate dehydrogenase kinase” (MERCK PATENT GMBH, priority 2013, dated 2017).

The target in test [1] is T1, human PDHK2 (12-407) (Homo sapiens, UniProt Q15119).
T1 construct: The human PDHK2 (12-407) was produced in E. coli; His-tag (cleaved yes); made in house; host or cells: E. coli
The test can be described thus: Isothermal titration calorimetry (ITC) binding. The conditions noted are these: 30° C., pH 7.5. Here is the method: Isothermal Titration Calorimetry
ITC measurements were performed with a VP-ITC micro calorimeter (Microcal, LLC/GE Healthcare Bio-Sciences AB, Uppsala, Sweden). In general titrations were performed by titrating the protein (50 μM) to the test compound (5 μM) in 12 μl injections. All binding experiments were carried out at 30° C. In general the test compounds were diluted form DMSO stock solutions into the measurement buffer with a maximum final concentration of 1% DMSO. The measurement buffer was 20 mM HEPES, 135 mM KCl, 1 mM TCEP, 2 mM MgCl2, 15 mM NaH2PO4, pH 7.5. The human PDHK2 (12-407) was produced in E. coli as his-tagged protein and purified by affinity chromatography. The tag was removed by side specific proteolysis. Before titration the protein buffer was changed to the measurement buffer containing the same DMSO concentration as the test compound dilution. ITC data analysis was performed using Origin 7 calorimetry software from the same supplier. For most measurements a binding model of one binding site was assumed. According to the applied mathematical model it is possible to calculate the binding constant (KA), the observed binding enthalpy (ΔH^obs) as well as the stoichiometry (N) of the formed complex. Preceding analysis the raw data was corrected for the heats of dilution by extrapolating from the saturation value from the end of titration. In order to allow for direct comparison between the respective experimental series and protein preparations the protein concentration was corrected by referencing titrations to a well behaved standard inhibitor. The apparent stoichiometry values defined the fraction of binding competent protein and compensated for relative errors in protein concentration measurements. This corrected protein concentration was used to set up ITC experiment series with test compounds. Any deviations from ideal 1:1 stoichiometry observed here were attributed to errors in compound concentration. This nominal compound concentration was corrected as well to achieve 1:1 stoichiometry in the fit.
Background: In ITC the heat of successive injections is recorded.

Test [2] addresses T2, PDHK2 (Homo sapiens, UniProt Q15119).
T2 construct: purchased Carna Bioscience
The test can be described thus: Biochemical activity testing of PDHK2: PDC inactivation assay. The conditions noted are these: human rec PDHK2, PDC from porcine heart, ATP 5 μM; read-out: IC50 PDHK2 (enzyme assay). A digest of the protocol:
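Human recombinant PDHK2 (137 nM final) preincubated 30 min at RT with porcine heart PDC (20 mU/ml) and compound in pH 7.0 phosphate buffer, then phosphorylated with 5 μM ATP for 30 min at 37 °C. Residual PDC activity read as NADH fluorescence increase (Ex 340/Em 450) over 45 min; inhibitor-free reaction as full value, 3 mM DCA as zero, IC50 derived.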

The test system of test [3] is PDH-Elalpha (pSer300). The test can be described thus: Cellular immunofluorescence assay in HEK293T cells. Type of test: cell-based. Particulars: Homo sapiens, HEK-293T, 5 hours incubation, anti-PDH-E1alpha pSer300 immunofluorescence, read-out: IC50 (cell data). Here is the method: Cellular Assay for Determination of Compound Activities
Compound activities were determined in a cellular immunofluorescence assay. Human HEK293T cells were seeded into black 384-well plates with clear bottom and grown overnight.
Next day, test compounds were added to the wells and the plates incubated for 5 hours. Following this, cells were fixed with formaldehyde, permeabilised and blocked. The primary antibody, Anti-PDH-Elalpha (pSer300), AP1064 (Merck Millipore) was added and incubated overnight in the plate wells. Next, cells were washed and the seconday antibody, Alexa Fluor 488, goat anti-rabbit ab (A-11008, Invitrogen) was added together with Hoechst 33258 (H3569, Invitrogen) and incubated for 1 hour in the plate wells. Finally, cells were washed and the plates were measured on the laser scanning cytometer acumen hci (TTpLabtech).
The raw data were normalized against a pharmacological inhibitor control and dose response curves were generated by plotting the percent effect values using the software package Genedata screener (Genedata).

As usually defined, the Kd is the equilibrium constant for the complex coming apart. The IC50 is the midpoint of a concentration-inhibition curve. On to `C[C@@](O)(C(=O)N1CCC(c2ccnn2-c2ccccc2F)CC1)C(F)(F)F` [Compound A4, (R)-3,3,3-Trifluoro-1-{4-[2-(2-fluoro-phenyl)-2H-pyrazol-3-yl]-piperidin-1-yl}-2-hydroxy-2-methyl-propan-1-one], for which the Kd in test [1] is < 300 nM. Also, the figures for the IC50 in test [2] and in test [3] were < 300 nM and 300 to 3000 nM, respectively.

Regarding `Cc1ccccc1-n1nccc1C1CCN(C(=O)[C@@](C)(O)C(F)(F)F)CC1` [Compound A5, (R)-3,3,3-Trifluoro-2-hydroxy-2-methyl-1-[4-(2-o-tolyl-2H-pyrazol-3-yl)-piperidin-1-yl]-propan-1-one], the Kd in test [1] was < 300 nM. Besides, the IC50 in test [2] and in test [3] was 300 to 3000 nM in each case.

Take `Cc1cccc(-n2nccc2C2CCN(C(=O)[C@@](C)(O)C(F)(F)F)CC2)c1` [Compound A6, (R)-3,3,3-Trifluoro-2-hydroxy-2-methyl-1-[4-(2-m-tolyl-2H-pyrazol-3-yl)-piperidin-1-yl]-propan-1-one]: the Kd in test [1] was < 300 nM. Moreover, the IC50 in test [2] and in test [3] was 300 to 3000 nM throughout.

Consider `C[C@@](O)(C(=O)N1CCC(c2ccnn2-c2cccc(C#N)c2)CC1)C(F)(F)F` [Compound A8, 3-{5-[1-((R)-3,3,3-Trifluoro-2-hydroxy-2-methyl-propionyl)-piperidin-4-yl]-pyrazol-1-yl}-benzonitrile], for which the Kd in test [1] is < 300 nM. Moreover, the IC50 in test [2] and in test [3] was 300 to 3000 nM each time.

As for `C[C@@](O)(C(=O)N1CCC(c2ccnn2-c2ccc(C#N)cc2)CC1)C(F)(F)F` [Compound A9, 4-{5-[1-((R)-3,3,3-Trifluoro-2-hydroxy-2-methyl-propionyl)-piperidin-4-yl]-pyrazol-1-yl}-benzonitrile], the Kd in test [1] was < 300 nM. The IC50 in test [2] and in test [3] was 300 to 3000 nM each time.

`C[C@@](O)(C(=O)N1CCC(c2ccnn2-c2cccc(F)c2)CC1)C(F)(F)F` [Compound A10, (R)-3,3,3-Trifluoro-1-{4-[2-(3-fluoro-phenyl)-2H-pyrazol-3-yl]-piperidin-1-yl}-2-hydroxy-2-methyl-propan-1-one]: the Kd in test [1] was < 300 nM. Further, the IC50 in test [2] was < 300 nM; in test [3], 300 to 3000 nM.

`C[C@@](O)(C(=O)N1CCC(c2ccnn2-c2ccccc2Cl)CC1)C(F)(F)F` [Compound A11, (R)-1-{4-[2-(2-Chloro-phenyl)-2H-pyrazol-3-yl]-piperidin-1-yl}-3,3,3-trifluoro-2-hydroxy-2-methyl-propan-1-one]: the Kd in test [1] was < 300 nM. For the same compound, the IC50 was < 300 nM in test [2] and 300 to 3000 nM in test [3].

Take `C[C@@](O)(C(=O)N1CCC(c2ccnn2-c2cccc(Cl)c2)CC1)C(F)(F)F` [Compound A12, (R)-1-{4-[2-(3-Chloro-phenyl)-2H-pyrazol-3-yl]-piperidin-1-yl}-3,3,3-trifluoro-2-hydroxy-2-methyl-propan-1-one]: the Kd in test [1] was < 300 nM. Further, the IC50 was 300 to 3000 nM in test [2] and 3000 to 50000 nM in test [3].

For the compound `C[C@@](O)(C(=O)N1CCC(c2ccnn2-c2ccc(Cl)cc2)CC1)C(F)(F)F` [Compound A13, (R)-1-{4-[2-(4-Chloro-phenyl)-2H-pyrazol-3-yl]-piperidin-1-yl}-3,3,3-trifluoro-2-hydroxy-2-methyl-propan-1-one], in test [1], the Kd is < 300 nM. The results for the IC50 in test [2] and in test [3] were < 300 nM and 300 to 3000 nM, respectively.

Regarding `C[C@@](O)(C(=O)N1CCC(c2ccnn2-c2ccc(F)cc2)CC1)C(F)(F)F` [Compound A14, (R)-3,3,3-Trifluoro-1-{4-[2-(4-fluoro-phenyl)-2H-pyrazol-3-yl]-piperidin-1-yl}-2-hydroxy-2-methyl-propan-1-one], in test [1], the Kd was < 300 nM. Besides, the IC50 in test [2] is < 300 nM; in test [3], 300 to 3000 nM.

For `C[C@@](O)(C(=O)N1CCC(c2ccnn2-c2cccc(Cl)c2F)CC1)C(F)(F)F` [Compound A15, (R)-1-{4-[2-(3-Chloro-2-fluoro-phenyl)-2H-pyrazol-3-yl]-piperidin-1-yl}-3,3,3-trifluoro-2-hydroxy-2-methyl-propan-1-one], in test [1], the Kd is < 300 nM. Moreover, the IC50 in test [2] and in test [3] was < 300 nM each time.

For the compound `Cc1ccc(-n2nccc2C2CCN(C(=O)[C@@](C)(O)C(F)(F)F)CC2)c(F)c1` [Compound A16, (R)-3,3,3-Trifluoro-1-{4-[2-(2-fluoro-4-methyl-phenyl)-2H-pyrazol-3-yl]-piperidin-1-yl}-2-hydroxy-2-methyl-propan-1-one], the Kd in test [1] is < 300 nM. The IC50 in test [2] was < 300 nM; in test [3], 300 to 3000 nM.

`CC(C)(C)n1nccc1C1CCN(C(=O)[C@@](C)(O)C(F)(F)F)CC1` [Compound A17, (R)-1-[4-(2-tert-Butyl-2H-pyrazol-3-yl)-piperidin-1-yl]-3,3,3-trifluoro-2-hydroxy-2-methyl-propan-1-one]: the Kd in test [1] is < 300 nM. The IC50 in test [2] and in test [3] was 300 to 3000 nM in each case.

For the compound `C[C@@](O)(C(=O)N1CCC(c2ccnn2-c2ccc(C(F)(F)F)cc2Cl)CC1)C(F)(F)F` [Compound A18, (R)-1-{4-[2-(2-Chloro-4-trifluoromethyl-phenyl)-2H-pyrazol-3-yl]-piperidin-1-yl}-3,3,3-trifluoro-2-hydroxy-2-methyl-propan-1-one], in test [1], the dissociation constant Kd is < 300 nM. Further, the IC50 in test [2] is < 300 nM; in test [3], 300 to 3000 nM.

As for `C[C@@](O)(C(=O)N1CCC(c2ccnn2-c2ncc(Br)cn2)CC1)C(F)(F)F` [Compound A19, (R)-1-{4-[2-(5-Bromo-pyrimidin-2-yl)-2H-pyrazol-3-yl]-piperidin-1-yl}-3,3,3-trifluoro-2-hydroxy-2-methyl-propan-1-one], the Kd in test [1] was < 300 nM. Moreover, the IC50 in test [2] and in test [3] was 300 to 3000 nM throughout.

With `CC(C)(O)c1ccc(-n2nccc2C2CCN(C(=O)[C@@](C)(O)C(F)(F)F)CC2)cc1` [Compound A20, (R)-3,3,3-Trifluoro-2-hydroxy-1-(4-{2-[4-(1-hydroxy-1-methyl-ethyl)-phenyl]-2H-pyrazol-3-yl}-piperidin-1-yl)-2-methyl-propan-1-one], the Kd in test [1] is < 300 nM. Moreover, the IC50 is < 300 nM in test [2] and 300 to 3000 nM in test [3].

Regarding `CC(C)(C)c1ccc(-n2nccc2C2CCN(C(=O)[C@@](C)(O)C(F)(F)F)CC2)cc1` [Compound A21, (R)-1-{4-[2-(4-tert-Butyl-phenyl)-2H-pyrazol-3-yl]-piperidin-1-yl}-3,3,3-trifluoro-2-hydroxy-2-methyl-propan-1-one], in test [1], the Kd was < 300 nM. In addition, the IC50 in test [2] and in test [3] was 300 to 3000 nM throughout.

Turning to `CC(C)c1ccc(-n2nccc2C2CCN(C(=O)[C@@](C)(O)C(F)(F)F)CC2)cc1` [Compound A22, (R)-3,3,3-Trifluoro-2-hydroxy-1-{4-[2-(4-isopropyl-phenyl)-2H-pyrazol-3-yl]-piperidin-1-yl}-2-methyl-propan-1-one], the Kd in test [1] is < 300 nM. Also, the IC50 in test [2] and in test [3] was 300 to 3000 nM each time.

Regarding `C[C@@](O)(C(=O)N1CCC(c2ccnn2-c2ccc(Cl)cc2F)CC1)C(F)(F)F` [Compound A23, (R)-1-{4-[2-(4-Chloro-2-fluoro-phenyl)-2H-pyrazol-3-yl]-piperidin-1-yl}-3,3,3-trifluoro-2-hydroxy-2-methyl-propan-1-one], in test [1], the Kd was < 300 nM. For the same compound, the IC50 in test [2] was < 300 nM; in test [3], 300 to 3000 nM.

On to `CCc1ccc(-n2nccc2C2CCN(C(=O)[C@@](C)(O)C(F)(F)F)CC2)cc1` [Compound A24, (R)-1-{4-[2-(4-Ethyl-phenyl)-2H-pyrazol-3-yl]-piperidin-1-yl}-3,3,3-trifluoro-2-hydroxy-2-methyl-propan-1-one], for which the Kd in test [1] was < 300 nM. The IC50 is < 300 nM in test [2] and 300 to 3000 nM in test [3].
